From patent US20050209278A1, “Piperidinyl- and piperazinyl-sulfonylmethyl hydroxamic acids and their use as protease inhibitors” (priority 2002, published 2005)
pKi: −log10 of the molar value.

Key:
MMP-9 = biological target: T1, MMP-9 (Homo sapiens, UniProt P14780); assay: In vitro MMP inhibition, Ki determination (fluorogenic substrate II); assay type: biochemical; conditions: value outside parentheses
T1 construct: made in house; host or cells: MMP-9-transfected HT1080 cells (spent media)
How it was run: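 HT1080-derived MMP-9, activated with APMA, trypsin or MMP-3, incubated 1 hr at room temperature with inhibitor and 4 μM fluorogenic substrate II (at or below Km) in pH 7.5 Tris/NaCl/CaCl2 buffer; ex 330/em 420 nm. Ki from Morrison-equation regression, without substrate correction.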

MMP-13 = biological target: T2, MMP-13 (Homo sapiens, UniProt P45452); assay: as above; assay type: biochemical; conditions: value outside parentheses; read-out: MMP-13 Ki
T2 construct: made in house; host or cells: baculovirus / insect cells
How it was run: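 Ki determined with human recombinant MMP-13, baculovirus-expressed as proenzyme and activated with APMA. Fluorogenic MCA/Dpa substrate II at 4 μM (at or below Km) with low enzyme in Tris buffer pH 7.5 with CaCl2. Incubation was 1 h at room temperature, with fluorescence read at 330/420 nm.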

T1 sequence (P14780 107-707 limits assumed): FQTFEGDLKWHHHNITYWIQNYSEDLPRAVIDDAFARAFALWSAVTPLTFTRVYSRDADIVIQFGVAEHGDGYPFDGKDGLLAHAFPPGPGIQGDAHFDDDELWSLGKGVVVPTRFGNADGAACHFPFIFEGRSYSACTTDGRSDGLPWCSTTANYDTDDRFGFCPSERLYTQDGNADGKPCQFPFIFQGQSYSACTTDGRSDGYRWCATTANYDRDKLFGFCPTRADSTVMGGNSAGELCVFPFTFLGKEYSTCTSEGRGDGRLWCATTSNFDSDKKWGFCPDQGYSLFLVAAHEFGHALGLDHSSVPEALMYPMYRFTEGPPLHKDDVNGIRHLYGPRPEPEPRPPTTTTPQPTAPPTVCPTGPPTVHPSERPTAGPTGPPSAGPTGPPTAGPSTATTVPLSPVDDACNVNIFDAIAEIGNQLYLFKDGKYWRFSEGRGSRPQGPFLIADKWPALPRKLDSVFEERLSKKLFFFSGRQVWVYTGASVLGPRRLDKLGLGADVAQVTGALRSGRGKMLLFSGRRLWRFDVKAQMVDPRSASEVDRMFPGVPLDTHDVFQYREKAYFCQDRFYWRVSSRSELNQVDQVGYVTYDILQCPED

Compound | pKi (MMP-9) | pKi (MMP-13)
O=C(NO)C1(S(=O)(=O)N2CCN(c3ncc(-c4ccc(Cl)cc4)s3)CC2)CCOCC1 [Example 343] | 9.31 | 9.78
O=C(NO)C1(S(=O)(=O)N2CCN(c3ccc(OCCCC(F)(F)F)cc3)CC2)CC(O)C1 (stereo not drawn) [Example 342] | 6.97 | 8.41
O=C(NO)C1(S(=O)(=O)N2CCC(c3ccc(OCC(F)(F)C(F)(F)F)cc3)CC2)CCOCC1 [Example 330] | 8.52 | 9.04
O=C(NO)C1(S(=O)(=O)N2CCC(c3ccc(OC(F)(F)C(F)(F)F)cc3)CC2)CCOCC1 [Example 349] | 7.53 | 8.29
O=C(NO)C1(S(=O)(=O)N2CCN(c3ncc(-c4ccc(F)cc4F)s3)CC2)CCOCC1 [Example 359] | 8.92 | 9.36
O=C(NO)C1(S(=O)(=O)N2CCN(c3ccc(CCC(F)(F)C(F)(F)F)cc3)CC2)CCN(C2CC2)CC1 [Example 335] | 9.42 | 9.31
CC(C)c1ccc(-c2cnc(N3CCN(S(=O)(=O)C4(C(=O)NO)CCOCC4)CC3)s2)cc1 [Example 366] | 8.61 | 9.74
O=C(NO)C1(S(=O)(=O)N2CCN(c3ccc(CCCC(F)(F)F)cc3)CC2)CCOCC1 [Example 320] | 8.88 | 9.30
O=C(O)c1ccc(N2CCN(S(=O)(=O)C3(C(=O)NO)CCOCC3)CC2)cc1 [Example 352] | 5.18 | 5.44
CCCCCc1ccc(-c2cnc(N3CCN(S(=O)(=O)C4(C(=O)NO)CCOCC4)CC3)s2)cc1 [Example 380] | 7.79 | 9.19
O=C(NO)C1(S(=O)(=O)N2CCN(c3ncc(-c4ccc(Cl)c(Cl)c4)s3)CC2)CCOCC1 [Example 369] | 7.64 | 8.87
O=C(NO)C1(S(=O)(=O)N2CCN(c3ccc(-c4ccccc4F)cn3)CC2)CCOCC1 [Example 317] | 8.66 | 9.15
CCCCc1ccc(C2CCN(S(=O)(=O)C3(C(=O)NO)CCN(CC)CC3)CC2)nc1 [Example 396] | 9.41 | 8.66
COCCN1CCC(C(=O)NO)(S(=O)(=O)N2CCN(c3ncccn3)CC2)CC1 [Example 332] | 6.59 | 7.55
NC(=O)c1ccccc1-c1cnc(N2CCN(S(=O)(=O)C3(C(=O)NO)CCOCC3)CC2)s1 [Example 383] | 5.02 | 6.98
O=C(NO)C1(S(=O)(=O)N2CCN(c3ccc(-c4ccc(Cl)c(Cl)c4)cc3)CC2)CCOCC1 [Example 328] | 7.02 | 9.15
O=C(NO)C1(S(=O)(=O)N2CCC(c3ccc(-c4cccs4)cn3)CC2)CCOCC1 [Example 394] | 8.82 | 8.76

Compound | pKi (MMP-9) | pKi (MMP-13)
O=C(NO)C1(S(=O)(=O)N2CCN(c3ncc(-c4ccc(F)cc4)s3)CC2)CCOCC1 [Example 345] | 9.38 | 9.63
O=C(NO)C1(S(=O)(=O)N2CCN(c3cccc(OCCCC(F)(F)F)c3)CC2)CCOCC1 [Example 355] | 6.20 | 7.29
O=C(NO)C1(S(=O)(=O)N2CCN(c3ccc(CCCC(F)(F)F)cc3F)CC2)CCOCC1 [Example 386] | 8.31 | 8.64
O=C(NO)C1(S(=O)(=O)N2CCN(c3ncc(-c4ccc5c(c4)OCO5)s3)CC2)CCOCC1 [Example 362] | 8.86 | 9.39
CCc1ccc(-c2cnc(N3CCN(S(=O)(=O)C4(C(=O)NO)CCOCC4)CC3)s2)cc1 [Example 381] | 8.99 | 10.13
O=C(NO)C1(S(=O)(=O)N2CCN(c3cnn(-c4ccccc4)c(=O)c3)CC2)CCOCC1 [Example 322] | < 5.00 | < 5.00
O=C(NO)C1(S(=O)(=O)N2CCC(c3ccc(OCC(F)(F)C(F)F)cc3)CC2)CCN(CCN2CCOCC2)CC1 [Example 385] | 9.08 | 9.42
CCC=C1CCN(S(=O)(=O)C2(C(=O)NO)CCOCC2)CC1 [Example 374] | 6.66 | 8.24
CCCCc1cnc(N2CCN(S(=O)(=O)C3(C(=O)NO)CCN(CCOC)CC3)CC2)nc1 [Example 334] | 8.92 | 8.56
O=C(NO)C1(S(=O)(=O)N2CCN(c3ccc(OCC(F)(F)C(F)F)cc3)CC2)CCOCC1 [Example 336] | 8.86 | 9.28
O=C(NO)C1(S(=O)(=O)N2CCN(c3ncc(-c4ccc(-c5ccccc5)cc4)s3)CC2)CCOCC1 [Example 360] | 8.20 | 9.37
O=C(NO)C1(S(=O)(=O)N2CCN(c3ncc(-c4ccc(C(F)(F)F)cc4)s3)CC2)CCOCC1 [Example 346] | 8.69 | 9.78
O=C(NO)C1(S(=O)(=O)N2CCC(c3ccc(-c4ccc(C(F)(F)F)cc4)cn3)CC2)CCOCC1 [Example 395] | 7.53 | 9.05
O=C(NO)C1(S(=O)(=O)N2CCC(COCc3ccccc3)CC2)CCOCC1 [Example 373] | 8.12 | 8.47
O=C(NO)C1(S(=O)(=O)N2CCN(c3ccc(OCC4CC4)c(F)c3)CC2)CCOCC1 [Example 333] | 8.98 | 8.95
CCCCOc1cccc(N2CCN(S(=O)(=O)C3(C(=O)NO)CCOCC3)CC2)c1 [Example 354] | 6.10 | 6.78
